The record followed here is ChEMBL document CHEMBL1158738, “Constituents of the leaves and twigs of Calyptranthes pallens collected from an experimental plot in Southern Florida” (J Nat Prod, 2005).

For one data set, the system named is Lu1. Briefly: Cytotoxicity against human Lu1 cells. It counts as functional. As to conditions: read-out: ED50 (the source's name).
For a further data set, the system named is KB. Put plainly: Cytotoxicity against human KB cells. The settings on record: read-out: ED50 (the source's name). The format is functional.
A further data set deals with LNCaP. Put plainly: Cytotoxicity against human LNCAP cells. The format is functional. The settings on record: read-out: ED50 (the source's name).
Data set [1] can be described thus: Cytotoxicity against HUVEC. It counts as cell-based. As to conditions: human, HUVEC cells; read-out: ED50 (the source's name).
The next data set deals with MCF7. Put plainly: Cytotoxicity against human MCF7 cells. The format is functional. As to conditions: read-out: ED50 (the source's name).
Data set [2] can be described thus: Cytotoxicity against human telomerase reverse transcriptase human RPE1 cells. It counts as functional, TERT-RPE1. As to conditions: RPE-1, read-out: ED50 (the source's name).

Values after ≈ are worked out from the molar mass of the structure shown.

As for `CCCC(=O)c1c(O)c(C)c(OC)c(Cc2c(O)c(C(=O)CCC)c(O)c(C)c2OC)c1O`, the EC50 in the data set on Lu1 turned out to be 19.4 µg/mL (≈ 42.1 µM); in the data set with KB, 2.7 µg/mL (≈ 5.86 µM); in the data set with LNCaP it was 6.6 µg/mL (≈ 14.3 µM); in the data set with MCF7 it was 7.3 µg/mL (≈ 15.9 µM). Moreover, the CC50 in data set [1] amounted to 6.1 µg/mL (≈ 13.2 µM).

On to `CC1=CC[C@]2(C(=O)O)CC[C@]3(C)[C@H](CC[C@@H]4[C@@]5(C)CC[C@H](O)C(C)(C)[C@@H]5CC[C@]43C)[C@H]2[C@@H]1C`, for which the EC50 in the data set with Lu1 was 12.9 µg/mL (≈ 28.2 µM); in the data set with KB it was greater than 20 µg/mL; with LNCaP it was 7.3 µg/mL (≈ 16 µM); in the data set on MCF7 it was 9.7 µg/mL (≈ 21.2 µM). In addition, the CC50 in data set [1] is 10.4 µg/mL (≈ 22.8 µM).

Take `COc1cc([C@@H]2c3cc(O)c(OC)cc3C[C@@H](C)[C@H]2C)ccc1O` [ISOGUAIACIN]: the EC50 is 15.7 µg/mL (≈ 47.8 µM) in the data set with Lu1; 6.4 µg/mL (≈ 19.5 µM) with KB; 11.8 µg/mL (≈ 35.9 µM) with LNCaP; 12.4 µg/mL (≈ 37.8 µM) in the data set on MCF7; greater than 20 µg/mL in data set [2]. The CC50 in data set [1] came out at 14.7 µg/mL (≈ 44.8 µM).
